# Measured values: patent US20190290729A1, “PHARMACEUTICAL ASSOCIATION OF GROWTH FACTOR RECEPTOR AGONIST AND ADHESION PROTEIN INHIBITOR FOR CONVERTING A NEOPLASTIC CELL INTO A NON-NEOPLASTIC CELL AND USES THEREOF” (HISTIDE AG, priority 2015, published 2019)
# Where no end group is shown, it is not given here.
# What was measured:
# [1] = test system: human rhabdosarcoma cells; assay: pRB quantification, same procedure, rhabdosarcoma cells; format: cell-based; conditions: for pRB: Table 9, in association with SiRNA Integrin alpha 3+RGDSPC+SiRNA Integrin beta 1+SiRNA Syndecan 1 (SEQ ID NO: 31, 32, 164 to 187)
# Protocol: (§1) The following starting materials and reagents were used: • Type-I collagen sponge was obtained from Sigma®. • PBS 1× was obtained from Gibco®. • MilliQ water: is water characterised in terms of resistivity (typically 18.2 MΩ·cm at 25° C.). • Low glucose Dulbecco's Modified Eagle Medium (DMEM) was obtained from Invitrogen® • Minimum Essential Medium Eagle without ascorbic acid (αMEM) was obtained from Invitrogen®. • All of the cell culture experiments were carried out without any serum in the medium for the first 8 hours of culture. • Osteosarcoma cells: MG63 cells were obtained from ATCC®. These cells were cultured in DMEM (Eagle's Minimum Essential Medium) medium supplemented with 10% fetal calf serum (FCS) and 1% penicillin/streptomycin. All cells were used at a low passage number (passage 10), were subconfluently cultured and were seeded at 10^4 cells/cm^2 for the purpose of the experiments. • Chondrosarcoma cells Hs819.T cells were obtained from ATCC®. These cells were cultured in DMEM (Eagle's Minimum Essential Medium) medium supplemented with 10% fetal calf serum (FCS) and 1% penicillin/streptomycin. All cells were used at a low passage number (passage 10), were subconfluently cultured and were seeded at 10^4 cells/cm^2 for the purpose of the experiments. • Rhabdomyosarcoma cells: A-673 cells were obtained from ATCC®. These cells were cultured in DMEM (Eagle's Minimum Essential Medium) medium supplemented with 10% fetal calf serum (FCS) and 1% penicillin/streptomycin. All cells were used at a low passage number (passage 10), were subconfluently cultured and were seeded at 10^4 cells/cm^2 for the purpose of the experiments. • Adenocarcinoma cells: HCC4006 cells were obtained from ATCC®. These cells were cultured in RPMI-1640 medium (obtained from ATCC®) supplemented with 10% fetal calf serum (FCS) and 1% penicillin/streptomycin. All cells were used at a low passage number (passage 10), were subconfluently cultured and were seeded at 10^4 cells/cm^2 for the purpose of the experiments. • CMFDA is a Cell Tracker Green obtained from Invitrogen®. • DAPI was obtained from Sigma®. • Fetal bovine serum (FBS) was obtained from Gibco®. • Penicillin/streptomycin was obtained from Invitrogen®. • The AlamarBlue® assay was obtained from Molecular Probes®. • Anti phospho-p53 antibody was obtained from Santa Cruz Biotechnology®, • Anti pRB antibody was obtained from Santa Cruz Biotechnology®, • Monoclonal anti-integrin (extracellular domain) αv, α5, α3, α4, β1, β3, β5 and β9 antibodies were obtained from Santa Cruz Biotechnology®, • Cell cytoskeletal filamentous actin (F-actin) was visualized by Alexa Fluor® 488 phalloidin Sigma® labeling. • Monoclonal anti-vinculin antibody (clone hVIN-1, produced in mouse) was obtained from Sigma®.
# (§2) • All of the peptides were synthetized using conventional solution and/or solid phase peptide synthesis methods. • All of the experiments were performed with a concentration of 400 ng/mL of GFR-binding compound(s) as defined herein. • All cell culture experiments were performed with cultures on plastic coated with type-I collagen in order to mimic the physiological conditions of the human body. • The compositions of pharmaceutical compositions used in the examples below are summarized in the following table:
# (§3) The cells were first fixed for 20 min with 4% paraformaldehyde/PBS at 4° C. After fixation, the cells were permeabilized in PBS containing 1% Triton X-100 for 15 min. Protein immunofluorescent visualization was performed by first treating the cells with 1% (v/v) specific monoclonal antibodies for 1 hour at 37° C. Then the samples were incubated with Alexa Fluor® 568 or 647 (F(ab′)2 fragment of IgG(H+L)) during 30 min at room temperature. The cell nuclei were counterstained in 20 ng/mL DAPI for 10 min at room temperature.
# (§4) For this type of quantification the freeware image analysis ImageJ® software was used. […]
# [2] = test system: human rhabdosarcoma cells; assay: p53 quantification, same procedure, rhabdosarcoma cells; format: cell-based; parameters: P53: unit not given here; conditions: for P53: Table 9, in association with SiRNA Integrin alpha 3+RGDSPC+SiRNA Integrin beta 1+SiRNA Syndecan 1 (SEQ ID NO: 31, 32, 164 to 187)
# Protocol: as §1, §2, §3, §4
# [3] = Table 8, in association with SiRNA Integrin alpha 3, v, 4 and SiRNA Integrin beta 1
# [4] = Table 5, cyclic GFR-binding peptide in association with SiRNA Integrin alpha 3+RGDSPC+SiRNA Integrin beta 1+SiRNA Syndecan 1, 400 ng/mL
Sequence,pRB [1],P53 [2],other results
APTGGSATSMLYYDKGVVTYLRKHRGGVVK (Non-cyclic GFR-binding peptide) [SEQ ID NO: 127],,,"pRB (%) [1, 3]: 16%; P53 (%) [2, 3]: 33%"
APTLLNAISMLYFNDKQQIILKKYRLLVVR (Non-cyclic GFR-binding peptide) [SEQ ID NO: 126],,,"pRB (%) [1, 3]: 8%; P53 (%) [2, 3]: 41%"
APVAAKPLSMLYVDKGVVTYDHHKDAAVEE (Non-cyclic GFR-binding peptide) [SEQ ID NO: 132],,,"pRB (%) [1, 3]: 9%; P53 (%) [2, 3]: 38%"
"APVKMEPLPTVYYDDMGVPTEQLSNDMVEESGSLDDMGVPT (also: cyclic, ring not given here) [SEQ ID NO: 38225]",,,"pRB (%) [1, 4]: 9%; P53 (%) [2, 4]: 49%"
CAAAPASSSVPARLSPISILYIAAAYKQYEDM (Non-cyclic GFR-binding peptide) [SEQ ID NO: 185],8,47,
CAAPASSSVPARLSPISILYIDAANNVVYKQYEDMVVE (Non-cyclic GFR-binding peptide) [SEQ ID NO: 182],8,41,
CAAPASSSVPARLSPISILYIDAANNVVYKQYEDMVVEASG (Non-cyclic GFR-binding peptide) [SEQ ID NO: 181],9,45,
CAAPASSSVPARLSPISLLYIDAANNVVYKQYEDM (Non-cyclic GFR-binding peptide) [SEQ ID NO: 183],13,44,
CASAAPSSVPQALEPLPIVYYVGRTPKVEQLSNMIVRSSK (Non-cyclic GFR-binding peptide) [SEQ ID NO: 175],7,45,
CGIPEPSSVPEKMSSLSILFFDENKNVVLKVYPNM (Non-cyclic GFR-binding peptide) [SEQ ID NO: 179],11,40,
CGIPEPSSVPEKTSSLSLLFFDENKNVVLKVYPNM (Non-cyclic GFR-binding peptide) [SEQ ID NO: 180],9,29,
CKIPKASSVPTELEPLPIVYYVGRKPKVEQLSNMIVRS (Non-cyclic GFR-binding peptide) [SEQ ID NO: 174],6,40,
CPARLSPISLLYIDAANNVVYKQYEDM (Non-cyclic GFR-binding peptide) [SEQ ID NO: 184],11,39,
CTVPKPSSAPTQLSPISILYIDAANNVVYKQYEDMVVRA (Non-cyclic GFR-binding peptide) [SEQ ID NO: 187],9,42,
CVPQRLSPISILYIDAANNVVYKQYE (Non-cyclic GFR-binding peptide) [SEQ ID NO: 186],12,38,
CVPTEERSVKVAKVRIKPHQGQHKEVQV (Non-cyclic GFR-binding peptide) [SEQ ID NO: 176],7,33,
CVPTEESNITMQIMRIKPHQGQHIGEMSFL (Non-cyclic GFR-binding peptide) [SEQ ID NO: 177],8,43,
"EPSSSRVRLEPLTTLYYGGGGGGGEQLSNVVEEHSKDKGVVTY (also: cyclic peptide, ring closure not given here) [SEQ ID NO: 38224]",,,"pRB (%) [1, 4]: 8%; P53 (%) [2, 4]: 46%"
"EPSSVSQAAEPLPIVYYRIKPHQGQHEQLSNMIVKSSKSSDDMGVPT (also: cyclic peptide, ring closure not given here) [SEQ ID NO: 38226]",,,"pRB (%) [1, 4]: 12%; P53 (%) [2, 4]: 29%"
GTPGPAPTKLSAISMLYLDSSNNVILKKYR (Non-cyclic GFR-binding peptide) [SEQ ID NO: 166],10,37,

Sequence,pRB [1],P53 [2],other results
GTPGPAPTKLSAISMLYLDSSNNVILRKHR (Non-cyclic GFR-binding peptide) [SEQ ID NO: 165],9,42,
GTPGPAPTQLSPISVLYKDDSSNVILKYHY (Non-cyclic GFR-binding peptide) [SEQ ID NO: 31],5,34,
GTPGPASSAVSQELSAISMLYLGGGLKNYQDM (Non-cyclic GFR-binding peptide) [SEQ ID NO: 32],7,46,
GTPGPKASSVPTELSPISTLYKDENEKVVLKYHYDM (Non-cyclic GFR-binding peptide) [SEQ ID NO: 168],13,51,
GTPGPKASSVPTELSPISTLYKDENEKVVLKYHYDMVVEGSGSR (Non-cyclic GFR-binding peptide) [SEQ ID NO: 167],11,41,
GTPGPPKPSSAPTQLNAISMLYFGGGGGLKKYRDMQHN (Non-cyclic GFR-binding peptide) [SEQ ID NO: 169],8,37,
GTPGPPSSAPTQLSATSVLYYDDSSNVILRKHRMIVKS (Non-cyclic GFR-binding peptide) [SEQ ID NO: 164],10,47,
GTPGPRNVQCRPTQVQLSAISTLYLAAALKNYQTLE (Non-cyclic GFR-binding peptide) [SEQ ID NO: 173],15,37,
GTPGPRNVQCRPTQVQLSAISTLYLEIVRKKPLKNYQTLEDH (Non-cyclic GFR-binding peptide) [SEQ ID NO: 172],12,33,
"IPKASSAPVGQRPVQMRKIDKGVVTYKKATVSSVEESGSLDKGVVTY (not fully specified; also: cyclic, mode of cyclisation not given here) [SEQ ID NO: 38218]",,,"pRB (%) [1, 4]: 12%; P53 (%) [2, 4]: 36%"
"KASSSRVKMSNITVQIMRIKPHQGQHIGEMSVVEEHASGSHDKGVVTY (not fully specified; also: cyclic, mode of cyclisation not given here) [SEQ ID NO: 38222]",,,"pRB (%) [1, 4]: 15%; P53 (%) [2, 4]: 52%"
"KASSVPQEERPVQMRKIGGGGGGGKKATVMIVRSSKSSDDMGVPT (not fully specified; also: cyclic, mode of cyclisation not given here) [SEQ ID NO: 38219]",,,"pRB (%) [1, 4]: 15%; P53 (%) [2, 4]: 38%"
PTSSAPTDLRSVKMAKVEIVRKKPIFKEVQVDMVVKASGDKGVVTY (not fully specified; also: cyclic peptide) [SEQ ID NO: 38221],,,"pRB (%) [1, 4]: 11%; P53 (%) [2, 4]: 48%"
SRVAARSVKMAKVGGGGGGGKEVQVAAEEH (Non-cyclic GFR-binding peptide) [SEQ ID NO: 136],,,"pRB (%) [1, 3]: 10%; P53 (%) [2, 3]: 38%"
SRVLLRPVQMRKIDKGVVTYKKATVLLEEH (Non-cyclic GFR-binding peptide) [SEQ ID NO: 139],,,"pRB (%) [1, 3]: 18%; P53 (%) [2, 3]: 49%"
TPTSSSPINTLYFDDMGVPTYGKIPSSVVD (Non-cyclic GFR-binding peptide) [SEQ ID NO: 130],,,"pRB (%) [1, 3]: 15%; P53 (%) [2, 3]: 48%"
TQVAARPVQTRKIDDMGVPTKKATVAAEDH (Non-cyclic GFR-binding peptide) [SEQ ID NO: 140],,,"pRB (%) [1, 3]: 17%; P53 (%) [2, 3]: 35%"
VPEAASSLSMLFFEIVRKKPIFLKVYPAATVE (Non-cyclic GFR-binding peptide) [SEQ ID NO: 124],,,"pRB (%) [1, 3]: 12%; P53 (%) [2, 3]: 37%"
VPQAAEPLPMLYYDKGVVTYEQLSNAAVRS (Non-cyclic GFR-binding peptide) [SEQ ID NO: 133],,,"pRB (%) [1, 3]: 7%; P53 (%) [2, 3]: 42%"
